In patent US20160050919A1, “ACETYL-COA CARBOXYLASE INHIBITOR HERBICIDE AND AUXIN HERBICIDE FORMULATIONS” (Nufarm Americas, Inc., priority 2014, published 2016):

What was measured:
[1] = Stability of active ingredients in the formulation, two weeks at 54° C.; conditions: for % wt after 2 week at 54° C. / Initial % wt: formulation of Table 5 (emulsion)
[2] = Stability of fenoxaprop-p-ethyl in the formulation at ambient temperature (~22° C.); type: physicochemical
Protocol: The formulation described in table 1 was tested for stability of all three active ingredients for two weeks at 54° C.

[3] = formulation of table 1 (micro emulsion, pH 6.7), two weeks at 54° C.
[4] = formulation of table 3 (emulsifiable concentrate), two weeks at 54° C.

| SMILES | % wt after 2 week at 54° C. [1] [% wt] | Initial % wt [1] [% wt] | stability of active ingredient [1, 3] | stability of active ingredient [1, 4] | also measured |
| --- | --- | --- | --- | --- | --- |
| O=C(O)COc1nc(Cl)c(Cl)cc1Cl [Triclopyr, Triclopyr ACID] | 1.75 | 1.78 | – | – | – |
| COc1c(Cl)ccc(Cl)c1C(=O)O [Dicamba] | 0.45 | 0.64 | remained unchanged | remained unchanged | – |
| CCCCCCC(C)OC(=O)COc1nc(F)c(Cl)c(N)c1Cl (centres unmarked) [fluroxypyr MHE, Fluroxypyr MHE] | – | – | remained unchanged | remained unchanged | – |
| Cc1cc(Cl)ccc1O[C@@H](C)C(=O)O [MCPP-p] | 1.39 | 1.53 | – | – | – |
| CCOC(=O)[C@@H](C)Oc1ccc(Oc2nc3ccc(Cl)cc3o2)cc1 [fenoxaprop-p-ethyl, Fenoxaprop-p-ethyl] | 0.60 | 0.60 | – | – | recovered after storage [1, 3]: 1%; fenoxaprop-p-ethyl content, 2-week ([2]; formulation of table 1, 2 weeks): 2.61 wt %; fenoxaprop-p-ethyl content, 4-week ([2]; formulation of table 1, 4 weeks): 2.24 wt %; fenoxaprop-p-ethyl content, 6-week ([2]; formulation of table 1, 6 weeks): 2.15 wt %; fenoxaprop-p-ethyl content, 8-week ([2]; formulation of table 1, 8 weeks): 1.91 wt %; fenoxaprop-p-ethyl content, 12-week ([2]; formulation of table 1, 12 weeks): 1.28 wt %; fenoxaprop-p-ethyl content, 14-week ([2]; formulation of table 1, 14 weeks): 0.87 wt %; fenoxaprop-p-ethyl content, Initial ([2]; formulation of table 1, initial): 2.82 wt % |
